How the values were obtained:
Assay type in all cases: in vivo
[1] = system: Boophilus microplus; test: Boophilus microplus test (injection); conditions: application rate 20 μg/animal, adult engorged females, after 7 days
Protocol: (§1) Solvent: dimethyl sulfoxide
To produce a suitable preparation of active compound, 10 mg of active compound are dissolved in 0.5 ml solvent, and the concentrate is diluted with solvent to the desired concentration. Five adult engorged female ticks (Boophilus microplus) are injected with compound solution into the abdomen. Ticks are transferred into replica plates and incubated in a climate chamber for a period of time. Egg deposition of fertile eggs is monitored. After 7 days mortality in % is determined 100% means that all eggs are infertile; 0% means that all eggs are fertile.

[2] = system: Amblyomma hebraeum; test: Amblyomma hebraeum test (AMBYHE), nymph immersion; conditions: for activity (mortality in %): application rate 100 ppm, nymphs, after 42 days
Protocol: as §1
To produce a suitable preparation of active compound, 10 mg of active compound are dissolved in 0.5 ml solvent, and the concentrate is diluted with water to the desired concentration. Nymphs of the tick Amblyomma hebraeum are placed in perforated plastic beakers and immersed in aqueous compound solution for one minute. Ticks are transferred to a filter paper in a Petri dish and incubated in a climate chamber for 42 days.
After 42 days mortality in % is determined 100% means that all the ticks have been killed; 0% means that none of the ticks have been killed.

[3] = system: Lucilia cuprina larvae; test: Lucilia cuprina test (larvae in minced horse meat); conditions: application rate 100 ppm, larvae, after 2 days
Protocol: as §1
To produce a suitable preparation of active compound, 10 mg of active compound are dissolved in 0.5 ml solvent, and the concentrate is diluted with water to the desired concentration. Approximately 20-30 (Lucilia cuprina larvae) are transferred into a test tube containing 1 cm^3 of minced horse meat and 0.5 ml aqueous dilution of test compound. After 2 days mortality in % is determined 100% means that all the larvae have been killed; 0% means that none of the larvae have been killed.

Compound	activity (100% means that all eggs are infertile) [1]	also measured
CCC(=O)NCc1ccc(N2CCC(c3cc(C(F)(F)F)cc(C(F)(F)F)c3)(C(F)(F)F)C2)cc1Cl (stereo not shown) [1-307]	100%	activity (mortality in %) [2]: 80%
CCC(=O)NCc1ccc(N2CCC(c3cc(Cl)cc(Cl)c3)(C(F)(F)F)C2)cc1Br (stereo not shown) [3-5 according to WO2008/128711, reference compound]		Activity at 0.8 ppm ([2]; 0.8 ppm, comparison with WO2008/128711): 10%; Activity at 4 ppm ([2]; 4 ppm, comparison with WO2008/128711): 70%
O=C(NCc1ccccn1)c1sc(N2CCC(c3cc(Cl)cc(Cl)c3)(C(F)(F)F)C2)nc1C(F)(F)F (stereo not shown) [4-9]		activity (mortality in %) [3]: 80%
CSCCC(=O)NCc1ccc(N2CCC(c3cc(Cl)cc(Cl)c3)(C(F)(F)F)C2)cc1C(F)(F)F (stereo not shown) [1-509]	100%	activity (mortality in %) [2]: 90%
C=CCS(=O)(=O)CC(=O)NCc1ccc(N2CCC(c3cc(Cl)c(Cl)c(Cl)c3)(C(F)(F)F)C2)cc1C(F)(F)F (stereo not shown) [1-734]	100%	activity (mortality in %) [2]: 90%
O=C(CC(F)(F)F)NCc1ccc(N2CCC(c3cc(Cl)c(Cl)c(Cl)c3)(C(F)(F)F)C2)cc1Br (stereo not shown) [1-347]	100%	activity (mortality in %) [2]: 90%
O=C(CC(F)(F)F)NCc1ccc(N2CCC(c3cc(Cl)c(Cl)c(Cl)c3)(C(F)(F)F)C2)cc1Cl (stereo not shown) [1-340]	100%	activity (mortality in %) [2]: 80%
CC(=O)NC1CCc2cc(N3CCC(c4cc(Cl)c(Cl)c(Cl)c4)(C(F)(F)F)C3)ccc21 (stereo not shown) [6-267]	100%	
O=C(CC(F)(F)F)NCc1cnc(N2CCC(c3cc(Cl)c(Cl)c(Cl)c3)(C(F)(F)F)C2)cc1C(F)(F)F (stereo not shown) [1-380]	100%	
C=CC(=O)NCc1ccc(N2CCC(c3cc(Cl)cc(Cl)c3)(C(F)(F)F)C2)cc1C(F)(F)F (stereo not shown) [1-173]	100%	
NCc1cnc(N2CCC(c3cc(C(F)(F)F)cc(C(F)(F)F)c3)(C(F)(F)F)C2)nc1C(F)(F)F (stereo not shown) [3-146]	100%	
CCS(=O)(=O)CC(=O)NCc1ccc(N2CCC(c3cc(Cl)cc(Cl)c3)(C(F)(F)F)C2)cc1C(F)(F)F (stereo not shown) [1-501]	100%	
CS(=O)(=O)CC(=O)NCc1ccc(N2CCC(c3cc(C(F)(F)F)cc(C(F)(F)F)c3)(C(F)(F)F)C2)cc1C(F)(F)F (stereo not shown) [1-968]	100%	
CCC(=O)NCc1ccc(N2CCC(c3cc(Cl)c(Cl)c(Cl)c3)(C(F)(F)F)C2)cc1Cl (stereo not shown) [1-338]	100%	
CS(=O)(=O)CC(=O)NCc1ccc(N2CCC(c3cc(Cl)cc(Cl)c3)(C(F)(F)F)C2)cc1C(F)(F)F (stereo not shown) [1-495]	100%	
C=CC[S+]([O-])CC(=O)NCc1ccc(N2CCC(c3cc(Cl)c(Cl)c(Cl)c3)(C(F)(F)F)C2)cc1C(F)(F)F (stereo not shown) [1-733]	100%	
CCC(=O)NCc1ccc(N2CCC(c3cc(Cl)c(Cl)c(Cl)c3)(C(F)(F)F)C2)cc1Br (stereo not shown) [1-345]	100%	
O=C(NCc1ccc(N2CCC(c3cc(Cl)cc(Cl)c3)(C(F)(F)F)C2)cc1C(F)(F)F)NC1CC1 (stereo not shown) [1-224]	100%	
O=C(NCc1ccc(N2CCC(c3cc(Cl)cc(Cl)c3)(C(F)(F)F)C2)cc1Cl)NC1CC1 (stereo not shown) [1-81]	100%	
C=CCS(=O)(=O)CC(=O)NCc1ccc(N2CCC(c3cc(C(F)(F)F)cc(C(F)(F)F)c3)(C(F)(F)F)C2)cc1C(F)(F)F (stereo not shown) [1-971]	100%	
C=CCNC(=O)NCc1ccc(N2CCC(c3cc(Cl)cc(Cl)c3)(C(F)(F)F)C2)cc1C(F)(F)F (stereo not shown) [1-230]	100%	activity (mortality in %) [2]: 80%
O=C(NCc1ccc(N2CCC(c3cc(C(F)(F)F)cc(C(F)(F)F)c3)(C(F)(F)F)C2)cc1Br)C1CC1 (stereo not shown) [1-313]	100%	activity (mortality in %) [2]: 95%
O=C(CC(F)(F)F)NCc1ccc(N2CCC(c3cc(C(F)(F)F)cc(C(F)(F)F)c3)(C(F)(F)F)C2)nc1C(F)(F)F (stereo not shown) [1-404]	100%	activity (mortality in %) [2]: 85%
NCc1ccc(N2CCC(c3cc(C(F)(F)F)cc(C(F)(F)F)c3)(C(F)(F)F)C2)cc1C(F)(F)F (stereo not shown) [1-295]	100%	
O=C(CCCl)NCc1ccc(N2CCC(c3cc(C(F)(F)F)cc(C(F)(F)F)c3)(C(F)(F)F)C2)cc1C(F)(F)F (stereo not shown) [1-297]	100%	activity (mortality in %) [2]: 90%
CCCNC(=O)NCc1ccc(N2CCC(c3cc(Cl)cc(Cl)c3)(C(F)(F)F)C2)cc1C(F)(F)F (stereo not shown) [1-222]	100%	
NCc1ccc(N2CCC(c3cc(Cl)cc(Cl)c3)(C(F)(F)F)C2)cc1C(F)(F)F (stereo not shown) [1-141]	100%	

Compound	activity (100% means that all eggs are infertile) [1]	also measured
O=C(NCc1cnc(N2CCC(c3cc(Cl)c(Cl)c(Cl)c3)(C(F)(F)F)C2)nc1C(F)(F)F)C1CC1 (stereo not shown) [3-143]	100%	
CC=CC(=O)NCc1ccc(N2CCC(c3cc(Cl)cc(Cl)c3)(C(F)(F)F)C2)cc1Cl (stereo not shown) [1-30]	100%	
O=C(NCc1ccc(N2CCC(c3cc(Cl)cc(Cl)c3)(C(F)(F)F)C2)cc1Cl)C1CC1 (stereo not shown) [1-4]	100%	
CN(C)C(=O)NCc1ccc(N2CCC(c3cc(Cl)cc(Cl)c3)(C(F)(F)F)C2)cc1Cl (stereo not shown) [1-118]	100%	activity (mortality in %) [2]: 90%
O=C(NCc1ccc(N2CCC(c3cc(C(F)(F)F)cc(C(F)(F)F)c3)(C(F)(F)F)C2)cc1[N+](=O)[O-])C1CC1 (stereo not shown) [1-319]	100%	
CC(C)C(=O)NCc1ccc(N2CCC(c3cc(Cl)c(Cl)c(Cl)c3)(C(F)(F)F)C2)cc1C(F)(F)F (stereo not shown) [1-329]	100%	
N#Cc1ccc(N2CCC(c3cc(Cl)c(Cl)c(Cl)c3)(C(F)(F)F)C2)cc1C(F)(F)F (stereo not shown) [7-12]	100%	
CC(C)(C)OC(=O)NC1CCc2cc(N3CCC(c4cc(Cl)c(Cl)c(Cl)c4)(C(F)(F)F)C3)ccc21 (stereo not shown) [6-802]	100%	
CCOC(=O)NCc1ccc(N2CCC(c3cc(C(F)(F)F)cc(C(F)(F)F)c3)(C(F)(F)F)C2)cc1C(F)(F)F (stereo not shown) [1-299]	100%	
O=C(NCc1ccccn1)c1sc(N2CCC(c3cc(C(F)(F)F)cc(C(F)(F)F)c3)(C(F)(F)F)C2)nc1C(F)(F)F (stereo not shown) [4-35]	100%	
O=C(NCC(F)(F)F)c1sc(N2CCC(c3cc(C(F)(F)F)cc(C(F)(F)F)c3)(C(F)(F)F)C2)nc1C(F)(F)F (stereo not shown) [4-34]	100%	
CC(NC(=O)NCc1ccc(N2CCC(c3cc(Cl)cc(Cl)c3)(C(F)(F)F)C2)cc1Cl)C(F)(F)F (stereo not shown) [1-442]	100%	
O=C(NCc1sc(N2CCC(c3cc(Cl)c(Cl)c(Cl)c3)(C(F)(F)F)C2)nc1C(F)(F)F)C1CC1 (stereo not shown) [5-143]	100%	
FC(F)(F)C1(c2cc(Cl)cc(Cl)c2)CCN(c2ccc(CNC(=S)NC3CC3)c(Cl)c2)C1 (stereo not shown) [1-468]	100%	
O=C(NCc1ccccn1)c1sc(N2CCC(c3cc(Cl)c(Cl)c(Cl)c3)(C(F)(F)F)C2)nc1C(F)(F)F (stereo not shown) [4-22]	100%	
C=CCC(=O)NCc1ccc(N2CCC(c3cc(Cl)cc(Cl)c3)(C(F)(F)F)C2)cc1Cl (stereo not shown) [1-36]	100%	
CSCC(=O)NCc1ccc(N2CCC(c3cc(C(F)(F)F)cc(C(F)(F)F)c3)(C(F)(F)F)C2)cc1C(F)(F)F (stereo not shown) [1-966]	100%	
O=C(CC(F)(F)F)NCc1cnc(N2CCC(c3cc(C(F)(F)F)cc(C(F)(F)F)c3)(C(F)(F)F)C2)cc1C(F)(F)F (stereo not shown) [1-386]	100%	
C[S+]([O-])CC(=O)NCc1ccc(N2CCC(c3cc(Cl)c(Cl)c(Cl)c3)(C(F)(F)F)C2)cc1C(F)(F)F (stereo not shown) [1-729]	100%	
O=C(CC(F)(F)F)NCc1sc(N2CCC(c3cc(Cl)c(Cl)c(Cl)c3)(C(F)(F)F)C2)nc1C(F)(F)F (stereo not shown) [5-144]	100%	
C=CC[S+]([O-])CC(=O)NCc1ccc(N2CCC(c3cc(Cl)cc(Cl)c3)(C(F)(F)F)C2)cc1C(F)(F)F (stereo not shown) [1-504]	100%	
CCC(=O)NC1CCc2cc(N3CCC(c4cc(Cl)cc(Cl)c4)(C(F)(F)F)C3)ccc21 (stereo not shown) [6-4]	100%	
O=C(CC1CC1)NCc1ccc(N2CCC(c3cc(Cl)cc(Cl)c3)(C(F)(F)F)C2)cc1C(F)(F)F (stereo not shown) [1-155]	100%	
CCC(=O)NCc1cnc(N2CCC(c3cc(C(F)(F)F)cc(C(F)(F)F)c3)(C(F)(F)F)C2)nc1C(F)(F)F (stereo not shown) [3-148]	100%	
CNC(=O)N(C)Cc1ccc(N2CCC(c3cc(Cl)cc(Cl)c3)(C(F)(F)F)C2)cc1C(F)(F)F (stereo not shown) [1-258]	100%	
C=CC[S+]([O-])CC(=O)NCc1ccc(N2CCC(c3cc(C(F)(F)F)cc(C(F)(F)F)c3)(C(F)(F)F)C2)cc1C(F)(F)F (stereo not shown) [1-970]	100%	
